Results as given in patent EP1161524B1, “CELLS COEXPRESSING AN AMYLOID PRECURSOR PROTEIN AND AN $g(a)-SECRETASE AND THEIR USES IN TEST METHODS AND DIAGNOSTICS” (Fahrenholz, Falk, priority 1999, dated 2000).

Legend:
gereinigtes ADAM 10 = biological target: T1, gereinigtes ADAM 10 (Bos taurus, UniProt Q10741); test: Inhibition of the proteolytic cleavage of Aβ(11-28) by purified ADAM 10 (metalloproteinase inhibitors); assay type: biochemical, Rind (Bos taurus); settings: inhibitor concentration 1 mM
T1 construct: daß die proteolytisch aktivierte Form der Disintegrin-Metalloprotease ADAM 10 im wesentlichen in der Plasmamembranen lokalisiert ist; from tissue; host or cells: bovine kidney plasma membranes
T1 sequence (Q10741 214-748): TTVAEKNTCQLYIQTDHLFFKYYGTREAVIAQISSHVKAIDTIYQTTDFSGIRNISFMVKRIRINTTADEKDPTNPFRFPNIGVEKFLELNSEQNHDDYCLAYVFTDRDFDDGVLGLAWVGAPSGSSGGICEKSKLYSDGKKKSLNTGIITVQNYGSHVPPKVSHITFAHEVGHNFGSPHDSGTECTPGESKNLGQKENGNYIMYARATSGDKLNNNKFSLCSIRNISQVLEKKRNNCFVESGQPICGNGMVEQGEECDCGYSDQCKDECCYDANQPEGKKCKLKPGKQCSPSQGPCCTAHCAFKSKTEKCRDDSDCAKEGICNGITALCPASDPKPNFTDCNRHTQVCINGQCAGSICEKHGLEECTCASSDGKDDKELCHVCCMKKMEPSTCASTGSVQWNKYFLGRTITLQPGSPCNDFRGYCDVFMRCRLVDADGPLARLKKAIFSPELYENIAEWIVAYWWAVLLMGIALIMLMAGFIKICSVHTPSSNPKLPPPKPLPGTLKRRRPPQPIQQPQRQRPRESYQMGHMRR
Experimental: Peptide einer Endkonzentration von 0,3 mM wurden mit 2 µg gereinigten Enzym in 50 µl 50 mM EPPS pH 8,3, 250 mM NaCl bei 37°C 30 Minuten oder 6 Stunden inkubiert. Die Reaktionen wurden mit 2 µl TFA gestoppt. Meßproben wurden mit Hilfe von HPLC auf einer Vydac (The Separation Group, Hesperia, Calif. USA) RP 18 Säule (5 µm, 250 x 4,6 mm) analysiert. Die Peptide wurden mit einem Puffersystem von 0,1 % TFA in Wasser (Puffer A) und 0,1 % TFA, 9,9 % Wasser, 90 % Acetonitril (Puffer B) aufgetrennt, wobei der folgende Gradient angelegt wurde: 0 % B, 5 Min.; 0 bis 70 % B innerhalb 45 Min. Das Molekulargewicht der Proteolyseprodukte wurde mit ESI-Massenspektrometrie bestimmt. Für die Berechnung der prozentualen Spaltung wurde die Peakfläche, die ein Peptid ergab, das ohne Enzym inkubiert und ansonsten identisch behandelt wurde, als Referenz für 100 % herangezogen.
Einige Metalloproteinase-Inhibitoren wurden auf ihre Fähigkeit, die proteolytische Spaltung von Aβ(11-28) durch gereinigtes ADAM 10 zu inhibieren, getestet.

HEK-Zellen = test: Immunoblot analysis of APPsα secretion into the medium (antibody 6E10), untransfected HEK cells; assay type: cell-based; settings: Homo sapiens, HEK293, 1 µm PMA, 4 h, Fig. 5 lanes 1 and 2, read-out: Erhöhung der APPsα-Freisetzung
From the text: (§1) Fig. 5 zeigt die Sekretion von APPsα von HEK- und HEK-ADAM-10-Zellen. • (A) Die Zellen wurden in Gegenwart der bezeichneten Verbindung inkubiert. Nach 4 Stunden wurde das Medium gesammelt, die Proteine präzipitiert und einer Immunoblotanalyse mit dem monoklonalen Antikörper 6E10, gefolgt von einem sekundären [^35S]-markierten Anti-Maus-IgG-Antikörper, unterzogen. • (B) Quantitative Analyse des sekretierten APPsα. Die APPsα entsprechenden radioaktiven Banden wurden mit Hilfe eines Bio-Imaging Analyzer BAS-1800 quantifiziert. Die Meßwerte wurden wie in dem Beispiel beschrieben, auf verschiedene Proteinmengen normiert. […]
(§2) 8.10^5 HEK und HEK-ADAM10-Zellen (HEK-Zellen, die ADAM 10 stabil exprimieren, Verfahren wie oben) wurden auf 5 cm Zellkulturschalen, die mit Poly-L-Lysin behandelt worden waren, ausgesät und fast bis zu Konfluenz hochgezogen. […] Die radioaktiven Banden, die APPsα entsprachen, wurden mit Hilfe des Bio-Imaging-Analysers-BAS-1800 (Fuji) quantifiziert. […]
(§3) Die α-Sekretaseaktivität in HEK-ADAM 10 Zellen wurde mit der Aktivität, die in untransfizierten HEK-Zellen gefunden wurde, verglichen. […] Immunoblotexperimente und Immunopräzipitation nach metabolischer [^35S]-Markierung wurden durchgeführt, um die α-Sekretaseaktivität zu quantifizieren (Fig. 5 und Fig. 6). […]

HEK-ADAM 10-Zellen = test: Immunoblot analysis of APPsα secretion into the medium (antibody 6E10), HEK cells stably expressing ADAM 10; assay type: cell-based; settings: Homo sapiens, HEK293; HEK-ADAM 10 cells, 1 µm PMA, 4 h, Fig. 5 lanes 4 and 5; read-out: Vergrößerung der α-Sekretaseaktivität (APPsα-Freisetzung)
From the text: as §1, §2, §3

Inhibierung der proteolytischen Spaltung von Aβ(11-28) durch gereinigtes ADAM 10 (gereinigtes ADAM 10) | Compound | fold induction at 1 µM (HEK-Zellen) | fold induction at 1 µM (HEK-ADAM 10-Zellen)
inhibierte | c1cnc2c(c1)ccc1cccnc12 [1,10-Phenanthrolin] |  | 
vollständig inhibiert | OC(CS)C(O)CS (stereo not shown) [DTT] |  | 
 | CCCCCCCCCCCCCC(=O)O[C@@H]1[C@@H](C)[C@@]2(O)[C@@H](C=C(CO)C[C@]3(O)C(=O)C(C)=C[C@@H]23)[C@@H]2C(C)(C)[C@]12OC(C)=O [PMA, Phorbol-12-myristat-13-acetat] | ~6 | 2.5
